The subject of assay [1] is Staphylococcus Aureus. Briefly: Disc-diffusion agar method, antibacterial effect. The note with it: for growth inhibition: 48 hours at 30° C.; for effect on growth: at the concentrations tested (0.5 μg and 2 μg). In general terms: Agar diffusion results depend on both activity and mobility in agar.
The subject of assay [2] is Bacillus Thuringiensis. Briefly: Disc-diffusion agar method, antibacterial effect. The note with it: for area of inhibited bacterial growth / growth inhibition: 48 hours at 30° C.; for effect on growth: at the concentrations tested (0.5 μg and 2 μg).
Assay [3] has as its system Candida albicans. Put plainly: Candida albicans biofilm formation with cannabidiol and/or lactobacillus Casei, crystal violet staining. The class given is cell-based. The following applies: as compared to Candida albicans alone (row 4); incubation 24 hours. The method, then: A study is performed to evaluate the efficacy of a composition comprising cannabidiol and lactobacillus Casei in treating or preventing an infection by pathogenic microorganisms comprising Candida albicans, via preventing biofilm formation.
RPMI medium supplemented with 1% glucose is introduced into each well of a 24-well plate.
Candida albicans contacted with cannabidiol are added to each well of row 1.
Candida albicans contacted with lactobacillus Casei are added to each well of row 2.
Candida albicans contacted with cannabidiol and lactobacillus Casei are added to each well of row 3.
Candida albicans alone are added to each well of row 4.
After incubation for 24 hours, spent medium and free-floating fungi are removed by gentle aspiration and the wells washed twice with phosphate-buffered saline (PBS, pH 7.4).
The presence of biofilm is quantified by crystal violet staining as described above for Example 3.

Assay [4] has as its system Lactobacillus casei. Put plainly: Disc-diffusion agar method, antibacterial effect. The following applies: for growth inhibition: Lactobacillus casei, 48 hours at 30° C.; for effect on growth: lactobacillus Casei, at the concentrations tested (0.5 μg and 2 μg).
The subject of assay [5] is Escherichia coli. Put plainly: Disc-diffusion agar method, antibacterial effect. The following applies: for growth inhibition: 48 hours at 30° C.; for effect on growth: at the concentrations tested (0.5 μg and 2 μg).

Bounds are passed on as bounds.

Take `C=C(C)[C@@H]1CCC(C)=C[C@H]1c1c(O)cc(CCCCC)cc1O` [CBD, cannabidiol]: the growth inhibition entry in assay [1] (0.5 μg on disc) is on record as “−”; in assay [1] (2 μg on disc) it was “−”; in assay [2] (0.5 μg on disc) it was “+”; in assay [2] (2 μg on disc), “+”; in assay [4] (0.5 μg on disc), “−”; in assay [4] (2 μg on disc) it was “−”. Moreover, the growth inhibition entry in assay [5] (0.5 μg on disc) and in assay [5] (2 μg on disc) was “−” each time. Further, the “effect on growth” value in assay [1] is “no effect”; in assay [2] it was “inhibit growth”; in assay [4], “no effect”; in assay [5] it was “no effect”. For the same molecule, the entries for the “area of inhibited bacterial growth” value in assay [2] (0.5 μg on disc) and in assay [2] (2 μg on disc) were 2 mm and 3 mm, respectively. Also, in assay [3], the biofilm formation result is “significantly inhibited”.
For `CCCCCc1cc(O)c2c(c1)OC(C)(C)[C@@H]1CCC(C)=C[C@@H]21` [THC, tetrahydrocannabiniol], the growth inhibition result in assay [1] (0.5 μg on disc) was “−”; in assay [1] (2 μg on disc), “−”; in assay [2] (0.5 μg on disc) it was “+”; in assay [2] (2 μg on disc), “+”; in assay [4] (0.5 μg on disc), “−”; in assay [4] (2 μg on disc) it was “−”. For the same molecule, the growth inhibition entry in assay [5] (0.5 μg on disc) and in assay [5] (2 μg on disc) was “−” throughout. Moreover, the “effect on growth” value is on record as “no effect” in assay [1], “inhibit growth” in assay [2], “no effect” in assay [4] and “no effect” in assay [5]. In addition, the “area of inhibited bacterial growth” value in assay [2] (0.5 μg on disc) is 1 mm; in assay [2] (2 μg on disc), less than 1 mm.

The values are drawn from patent US20220362312A1, “CANNABIDIOL-ENHANCED PROBIOTIC COMPOSITIONS AND USES THEREOF FOR TREATMENT OF INFECTIONS” (BUZZELET DEVELOPMENT AND TECHNOLOGIES LTD., priority 2019, published 2022).
